Laboratory results taken from the supplement of paper PMC10307832.

How the values were obtained:
Test in all cases: relative viability (nuclei count vs DMSO), 5 days (fraction); higher = more cells survive
[1] = test system: 201T
Method in brief: (§1)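 Lung cancer cell lines in 1536-well plates got either a single drug or a fixed anchor-drug dose together with five library-drug doses (not always all listed) in √10 steps, by pin tool, on the day after seeding. Nuclei were counted after 5 days, and relative viability is the treated-to-vehicle ratio of nuclei counts. Values are medians of duplicate plates.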

[2] = test system: BEN
Method in brief: as §1

[3] = test system: CAL-12T
Method in brief: as §1

[4] = test system: COR-L 105
Method in brief: as §1

[5] = test system: COR-L23
Method in brief: as §1

[6] = test system: EKVX
Method in brief: as §1

[7] = test system: HARA
Method in brief: as §1

[8] = test system: HCC-366
Method in brief: as §1

[9] = test system: LK-2
Method in brief: as §1

[10] = test system: LU99A
Method in brief: as §1

[11] = test system: NCI-H1437
Method in brief: as §1

[12] = test system: NCI-H1650
Method in brief: as §1

[13] = test system: NCI-H1666
Method in brief: as §1

[14] = test system: NCI-H2009
Method in brief: as §1

[15] = test system: NCI-H2170
Method in brief: as §1

[16] = test system: NCI-H3122
Method in brief: as §1

[17] = test system: NCI-H441
Method in brief: as §1

[18] = test system: NCI-H661
Method in brief: as §1

[19] = test system: NCI-H727
Method in brief: as §1

[20] = test system: NCI-H838
Method in brief: as §1

[21] = test system: PC-14
Method in brief: as §1

[22] = test system: SW 900
Method in brief: as §1

O=C(O)c1ccc(-c2c[nH]c3ncc(-c4ccccc4)cc23)cc1C1CCCC1 + CC(=O)Nc1cccc(-n2c(=O)n(C3CC3)c(=O)c3c(Nc4ccc(I)cc4F)n(C)c(=O)c(C)c32)c1 [Trametinib] (partner 0.02 µM)
relative viability ([1]; first compound 0.04 µM): 0.703
relative viability ([1]; first compound 0.1265 µM): 0.673
relative viability ([1]; first compound 0.4 µM): 0.741
relative viability ([1]; first compound 1.265 µM): 0.738
relative viability ([2]; first compound 0.04 µM): 1.19
relative viability ([2]; first compound 0.1265 µM): 1.05
relative viability ([2]; first compound 0.4 µM): 1.08
relative viability ([2]; first compound 1.265 µM): 0.957
relative viability ([3]; first compound 0.04 µM): 0.327
relative viability ([3]; first compound 0.1265 µM): 0.372
relative viability ([3]; first compound 0.4 µM): 0.369
relative viability ([3]; first compound 1.265 µM): 0.333
relative viability ([4]; first compound 0.04 µM): 0.402
relative viability ([4]; first compound 0.1265 µM): 0.456
relative viability ([4]; first compound 0.4 µM): 0.46
relative viability ([4]; first compound 1.265 µM): 0.506
relative viability ([5]; first compound 0.04 µM): 0.584
relative viability ([5]; first compound 0.1265 µM): 0.608
relative viability ([5]; first compound 0.4 µM): 0.627
relative viability ([5]; first compound 1.265 µM): 0.507
relative viability ([6]; first compound 0.04 µM): 0.322
relative viability ([6]; first compound 0.1265 µM): 0.408
relative viability ([6]; first compound 0.4 µM): 0.33
relative viability ([6]; first compound 1.265 µM): 0.316
relative viability ([7]; first compound 0.04 µM): 0.692
relative viability ([7]; first compound 0.1265 µM): 0.72
relative viability ([7]; first compound 0.4 µM): 0.74
relative viability ([7]; first compound 1.265 µM): 0.545
relative viability ([8]; first compound 0.04 µM): 0.343
relative viability ([8]; first compound 0.1265 µM): 0.466
relative viability ([8]; first compound 0.4 µM): 0.311
relative viability ([8]; first compound 1.265 µM): 0.309
relative viability ([9]; first compound 0.04 µM): 0.73
relative viability ([9]; first compound 0.1265 µM): 0.816
relative viability ([9]; first compound 0.4 µM): 0.599
relative viability ([9]; first compound 1.265 µM): 0.781
relative viability ([10]; first compound 0.04 µM): 0.575
relative viability ([10]; first compound 0.1265 µM): 0.516
relative viability ([10]; first compound 0.4 µM): 0.52
relative viability ([10]; first compound 1.265 µM): 0.51
relative viability ([11]; first compound 0.04 µM): 0.476
relative viability ([11]; first compound 0.1265 µM): 0.609
relative viability ([11]; first compound 0.4 µM): 0.541
relative viability ([11]; first compound 1.265 µM): 0.202
relative viability ([12]; first compound 0.04 µM): 0.54
relative viability ([12]; first compound 0.1265 µM): 0.684
relative viability ([12]; first compound 0.4 µM): 0.758
relative viability ([12]; first compound 1.265 µM): 0.49
relative viability ([13]; first compound 0.04 µM): 0.916
relative viability ([13]; first compound 0.1265 µM): 0.809
relative viability ([13]; first compound 0.4 µM): 0.84
relative viability ([13]; first compound 1.265 µM): 0.598
relative viability ([14]; first compound 0.04 µM): 0.261
relative viability ([14]; first compound 0.1265 µM): 0.311
relative viability ([14]; first compound 0.4 µM): 0.274
relative viability ([14]; first compound 1.265 µM): 0.224
relative viability ([15]; first compound 0.04 µM): 0.899
relative viability ([15]; first compound 0.1265 µM): 0.925
relative viability ([15]; first compound 0.4 µM): 0.887
relative viability ([15]; first compound 1.265 µM): 0.79
relative viability ([16]; first compound 0.04 µM): 0.196
relative viability ([16]; first compound 0.1265 µM): 0.24
relative viability ([16]; first compound 0.4 µM): 0.253
relative viability ([16]; first compound 1.265 µM): 0.277
relative viability ([17]; first compound 0.04 µM): 0.48
relative viability ([17]; first compound 0.1265 µM): 0.494
relative viability ([17]; first compound 0.4 µM): 0.393
relative viability ([17]; first compound 1.265 µM): 0.464
relative viability ([18]; first compound 0.04 µM): 0.585
relative viability ([18]; first compound 0.1265 µM): 0.628
relative viability ([18]; first compound 0.4 µM): 0.585
relative viability ([18]; first compound 1.265 µM): 0.59
relative viability ([19]; first compound 0.04 µM): 0.428
relative viability ([19]; first compound 0.1265 µM): 0.428
relative viability ([19]; first compound 0.4 µM): 0.379
relative viability ([19]; first compound 1.265 µM): 0.428
relative viability ([20]; first compound 0.04 µM): 0.563
relative viability ([20]; first compound 0.1265 µM): 0.561
relative viability ([20]; first compound 0.4 µM): 0.569
relative viability ([20]; first compound 1.265 µM): 0.472
relative viability ([21]; first compound 0.04 µM): 0.714
relative viability ([21]; first compound 0.1265 µM): 0.75
relative viability ([21]; first compound 0.4 µM): 0.703
relative viability ([21]; first compound 1.265 µM): 0.688
relative viability ([22]; first compound 0.04 µM): 0.757
relative viability ([22]; first compound 0.1265 µM): 0.711
relative viability ([22]; first compound 0.4 µM): 1.37
relative viability ([22]; first compound 1.265 µM): 0.454
